Reference: patent US12492367B2, “Sensor chip capable of culturing cells and of analyzing cell-derived substance, and cell activity quantitative analysis method using the same” (AJOU UNIVERSITY INDUSTRY-ACADEMIC COOPERATION FOUNDATION, priority 2020, dated 2025)

Columns and labels:
RAW 264.7 cells [1] = test: Observation of cell shape change of RAW 264.7 cells after PMA treatment in the sensor chip; type: cell-based, murine; conditions: 16 μM PMA added to culturing liquid; RAW 264.7 cells adhered after 24 hours culture; FIGS. 4-1 and 4-2
Procedure: (§1) After introducing the sensor chip into an autoclave, the sensor chip was autoclaved at a temperature of 120° C. for […]. Thereafter, RAW 264.7 cells as a murine macrophage cell line were inoculated into a cell culturing compartment containing the culturing liquid of the sterilized sensor chip, and then were cultured for 24 hours to adhere the cells to a surface of the culturing compartment. In this regard, Dulbecco's modified eagle medium (DMEM), 10% fetal bovine serum, and 5% penicillin streptomycin were added to the culturing liquid, and then culturing of the cells was carried out at 37° C., and under a 5% CO2 concentration condition.
(§2) After identifying that the cells were adhered to the surface of the culturing compartment, 16 μM of PMA was added to the culturing liquid to chemically activate the cells, and change in the cell shape was observed (FIGS. 4-1 and 4-2). In this regard, PMA used as the chemical stimulant acts as a strong tumor promoter and is a chemical that induces cell growth, differentiation, and immune response when the PMA is added to the culturing liquid. When the external stimulating substance such as the PMA is added to the culturing liquid, the immune cells recognize the external stimulating substance as an external stimulus such that the activation of the cells is induced.

RAW 264.7 cells [2] = test: Cyclic voltammetry measurement of hydrogen peroxide secreted into the cell culturing liquid after PMA treatment (HRP carbon paste work electrode); type: cell-based, murine; conditions: 16 μM PMA; CV 0 V to −1 V, reduction current at −400 mV; calibration curve; FIG. 4-6
Procedure: as §1
as §2, with “When the external stimulating substance such as the PMA is added to the culturing liquid, the immune cells recognize the external stimulating substance as an external stimulus such that the activation of the cells is induced.” left out
For this purpose, a calibration curve (FIG. 4-5) was obtained based on the CV results measured while hydrogen peroxide having varying concentrations was added to the cell culturing liquid. […]

Structure (SMILES): CCCCCCCCCCCCCC(=O)O[C@@H]1[C@@H](C)[C@@]2(O)[C@@H](C=C(CO)C[C@]3(O)C(=O)C(C)=C[C@@H]23)[C@@H]2C(C)(C)[C@]12OC(C)=O [PMA, phorbol 12-myristate 13-acetate]
- change in the cell shape after the PMA treatment (RAW 264.7 cells [1]): cell shape changed into an atypical shape
- concentration of hydrogen peroxide secreted from the cells over time after the PMA treatment (RAW 264.7 cells [2]): concentration of hydrogen peroxide secreted from the cells also increases
